The values that follow come from US6706491B1, “Reagents and methods for identifying and modulating expression of genes regulated by p21” (The Board of Trustees of the University of Illinois, priority 1999, dated 2004).

Each structure is given as a SMILES string.

For assay [1], the system named is p21-9 cells. The assay can be described thus: Mitotic index (microscopy after DAPI staining) in p21-9 cells. It is filed as cell-based, human. As to the method: (§1) Cell growth in the presence of IPTG was assayed in three ways: measuring ^3H-thymidine incorporation (termed the “labeling index”); observing the number of mitotic cells in the culture by microscopy (termed the “mitotic index”) and determining the distribution of the culture cells in different portions of the cell cycle (termed the “cell cycle distribution”).
(§2) The mitogenic index was determined by observing cells microscopically and calculating the number of cells in mitosis after staining with 5 μg/mL 4,6-diamino-2-phenylindole (DAPI), and images were collected using a Leica DMIRB fluorescence microscope and Vaytek (Fairfield, Iowa) imaging system. Microscopically-detectable mitotic cells disappeared from these cultures in the presence of IPTG in two stages: the first occurring between 0-4 hours after IPTG addition (wherein the mitotic index dropped from about 15% in untreated cells to about 5% in IPTG-treated cells) and then again between about 10-14 hours after IPTG addition (wherein the mitotic index dropped to zero at about 13 hours after IPTG addition (FIG. 3B).

For assay [2], the system named is p21-9 cells. The assay can be described thus: Colony assay for recovery from IPTG treatment. The assay is classed as cell-based, human. The settings on record: for decreased clonogenicity: 3-5 days treatment; for reduction of clonogenicity: continuous exposure. As to the method: (§3) Colony assays for recovery from IPTG treatment were performed by plating about 2,000 p21-9 cells per 10 cm culture dish in DMEM/10% FCS and the presence or absence of IPTG. Cells were allowed to form colonies for 10 days before their clonogenic capacity was determined. p12-9 cells were treated with three concentrations of IPTG: 0.5 μM, 5 μM and 50 μM. […] In contrast, continuous exposure of the cells to 5 μM or 50 μM IPTG reduced the clonogenicity of p2l-9 cells by 80% and 100%, respectively.

For assay [3], the system named is p21-9 cells. The assay can be described thus: Morphology of mitotic figures after release from IPTG. The settings on record: 1-2 days after release. The assay is classed as cell-based, human. The protocol: as §2
A major difference between cells that were inhibited by IPTG for one day compared with those inhibited for S days emerged, however, when the morphology of attached mitotic cells arising 1-2 days after release from IPTG was examined. […] The percentage of normal mitoses in 1-day and 5-day IPTG treated cells were 45% and 2%, respectively, which is close to the corresponding values for clonogenic recovery (38% and 1%).

Assay [4] relates to p21-9 cells. The assay can be described thus: 3H-thymidine labeling index (autoradiography) in p21-9 cells. The assay is classed as cell-based, human. As to the method: as §1
^3H-thymidine incorporation assays were performed substantially as described by Dimri et al. (1995, Proc. Natl. Acad. Sci. USA 92: 9363-9367). Cells were cultured in the presence of ^3H-thymidine for 3h, and then analyzed by autoradiography. DNA replication as determined by autoradiography ceased entirely by 9 hours after addition of IPTG to the culture media (FIG. 3A).

In the next assay the test system is p21. The assay can be described thus: p21 induction in p21-9 cells by IPTG (p21 ELISA). The assay is classed as cell-based, human. The protocol:
p21 expression from the LNp21CO3 vector in p21-9 cells was induced by culturing the cells in DMEM medium containing 10% fetal calf serum (Hyclone, Logan, Utah) and IPTG. […] Upon removing the cells from IPTG-containing media, p21 expression fell about as rapidly as it had risen, returning to pre-induction levels at about 24 hours after IPTG was removed, (FIG. 2B).
as §3
Expression of 69 of these genes was individually tested by RT-PCR or northern hybridization with probes derived from inserts of the cDNA clones present in the microarray; these cDNAs were obtained from Genome Systems, Inc. In addition, enzyme-linked immunosorbent assay (ELISA) measurement of p21 protein was carried out using WAF1 ELISA kit (obtained from Oncogene Science, Uniondale, N.Y.) as described (Chang et al., 1999, Oncogene 18: 4808-4818). The following primary antibodies were used for immunoblotting: mouse monoclonal antibodies against Cdc2 (Santa Cruz), cyclin A (NeoMarkers), Plk 1 (Zymed) and Rb (PharMingen); rabbit polyclonal antibodies against MAD2 (BadCo), p107 (Santa Cruz), CTGF (Fisp-12; a gift of Dr. L. Lau), Prc 1 (a gift of Drs. W. Jiang and T. Hunter), and topoisomerase IIα (Ab0284; a gift of Dr. W. T. Beck), and sheep polyclonal antibody against. SOD2 (Calbiochem). Horse radish peroxidase (HRP)-conjugated secondary antibodies used were goat anti-mouse and goat anti-rabbit. IgG (Santa:Cruz) and rabbit anti-sheep IgG (KPL). Protein concentrations in all samples were equalized after measurement with BioRad-protein assay kit. Immunoblotting was carried out by standard procedures, and the signal was detected by chemiluminescence using LumiGlo (KPL).
Background: An ELISA detects its analyte on a solid surface through an enzyme-linked reagent.

Another assay deals with C8 cells. Kind of assay: Apoptosis / cell survival assay in low serum. Conditions: IPTG added by itself. It is filed as cell-based, mouse. As to the method: (§4) In these experiments, conditioned media were prepared by plating 10^6 p12-9 cells per 15 cm plate in the presence of DMEM/10% FCS. The next day, IPTG was added to a final concentration of 50 μM, and this media was replaced three days later with DMEM supplemented with 0.5% FCS and 50 μM IPTG. Two days later (days 3-5 of IPTG treatment), this conditioned media was collected and stored at 4° C. up to 15 days before use. Control media were prepared by adding IPTG-free DMEM/0.5% FCS to untreated cells grown to the same density as IPTG-treated cells and collecting the media two days thereafter.
The effect of this conditioned media on apoptosis was also determined. These experiments used a mouse embryo fibroblast line C8, immortalized by E1A. […] Apoptosis was analyzed by plating 3×10^5 C8 cells per 6-cm plate, and replacing the media on the following day with fresh media supplemented with 0.4% serum or with conditioned media (no fresh serum added). DNA content analysis and DAPI staining were carried out after 24 hrs and 48 hrs, and relative cell numbers were measured by methylene blue staining (Perry et al., 1992, Mutai. Res. 276: 189-197) after 48 hrs in low-serum media.

A further assay has as its system HS 15.T cells. The assay can be described thus: Mitogenic activity assay (3H-thymidine incorporation). The assay is classed as cell-based, human. The settings on record: media supplemented with 1% or 2% FCS; 60 hr then 24 hrs label. The protocol: as §4
The slow-growing human fibrosarcoma cell line HS 15.T was used to detect mitogenic activity in these conditioned media. For mitogenic activity assays, both types of conditioned media, as well as fresh media and 1:1 mixtures of conditioned media and fresh media were used to test mitogenic activity. In these experiments, the conditioned media were supplemented with 1% or 2% FCS. Briefly, HS 15.T cells were plated in 12-well plates at 15,000 cells per well. Two days later, these cells were cultured in different types of media. […] Cells were then collected and their ^3H-thymidine incorporation determined as described by Mosca et al. (1992, Mol. Cell. Biol. 12: 4375-4383).

For assay [5], the system named is p21-9 cells. The assay can be described thus: Cell cycle distribution (FACS, propidium iodide) in p21-9 cells. The assay is classed as cell-based, human. Conditions: after 24 hrs of 50 μM IPTG. The protocol: as §1
Cell cycle distribution was determined using FACS analysis of DNA content after staining with propidium iodide as described by Jordan et al. (1996, Cancer Res. 56: 816-825) using Becton Dickinson FACSort. By this time, 42-43% of IPTG-treated cells were arrested in G1 and G2, respectively, and about 15% of the cells were arrested with S-phase DNA content.

As for `CC(C)S[C@@H]1O[C@H](CO)[C@H](O)[C@H](O)[C@H]1O` [IPTG, isopropyl-β-thiogalactoside], in the assay with p21-9 cells [1] (0-4 hours after addition of 50 μM IPTG, about 15% in untreated cells), the mitotic index entry is given as “about 5%”. Besides, in the assay on p21-9 cells [1] (50 μM IPTG), the “time at which mitotic index dropped to zero after IPTG addition” value is on record as “about 13 hours”. Further, the “time to resumption of mitosis after IPTG release” value in the assay with p21-9 cells [1] (after removal of 50 μM IPTG) is “about 30 hours”. The colony formation result was “did not inhibit colony formation” with p21-9 cells [2] (0.5 μM IPTG) and “substantially undiminished colony formation” in the assay with p21-9 cells [2] (5 μM IPTG removed after 12 or 14 hours). For the same molecule, the decreased clonogenicity with p21-9 cells [2] (5 μM IPTG) is on record as 55-58%; with p21-9 cells [2] (50 μM IPTG), 95-99%. For the same molecule, the decrease in clonogenicity with p21-9 cells [2] (50 μM IPTG removed after 12 or 14 hours) is reported as 58-63%. The reduction of clonogenicity came out at 80% in the assay on p21-9 cells [2] (5 μM IPTG) and 100% with p21-9 cells [2] (50 μM IPTG). Further, the “percentage of normal mitoses” value with p21-9 cells [3] (1-day IPTG treatment) amounted to 45%; in the assay with p21-9 cells [3] (5-day IPTG treatment), 2%. Moreover, in the assay with p21-9 cells [4] (50 μM IPTG), the “time to complete cessation of DNA replication after addition of IPTG” value is at most 9 h. For the same molecule, the “time to resumption of DNA replication after release from IPTG” value in the assay with p21-9 cells [4] (after removal of 50 μM IPTG) is on record as “about 20 hours”. In addition, the “increase in p21 gene expression” value with p21 (0.5 μM IPTG) is given as “no measurable increase over basal p21 levels”; in the assay with p21 (5 μM IPTG), “half-maximal”; with p21 (50 μM IPTG), “maximal increase”. Besides, the “time of peak p21 expression post-induction” value with p21 (50 μM IPTG) was “about 24 hours”. In addition, the “increase in p21 levels” value in the assay with p21 (IPTG-treated p21-9 cells, 50 μM IPTG) is 15-20 fold. Further, the “effect on apoptosis in C8 cells” value with C8 cells is reported as “no effect on apoptosis”. The “effect on 3H-thymidine incorporation by HS 15.T cells” value in the assay on HS 15.T cells is “no effect”. For the same molecule, the “cells arrested in G1 and G2, respectively” value in the assay with p21-9 cells [5] is on record as 42-43%. Also, in the assay on p21-9 cells [5], the “cells arrested with S-phase DNA content” value is “about 15%”.
